Consider 1 molecule from PMC6213006, “Directed Evolution of a Homodimeric Laccase from Cerrena unicolor BBP6 by Random Mutagenesis and In Vivo Assembly” (International Journal of Molecular Sciences, 2018).

Experiment in all cases: ABTS oxidation at […] nm, Lineweaver-Burk, crude culture supernatant
What all share (type): biochemical, Cerrena unicolor

Assay [1] has as its system LacA (parent-type αLacA, recombinant). The settings on record: 100 mM acetate pH 4.0, 30 °C, 10–1000 µM ABTS, air O2; RM811.
For assay [2] the test system is unchanged. Conditions: 100 mM acetate pH 4.0, 30 °C, 10–1000 µM ABTS, air O2; RM243.
Assay [3] has the same test system. The settings on record: 100 mM acetate pH 4.0, 30 °C, 10–1000 µM ABTS, air O2; IVA205.
Assay [4] shares this test system. The settings on record: 100 mM acetate pH 4.0, 30 °C, 10–1000 µM ABTS, air O2; RM1307, expressed with leader mutations αN23I/αA75T.
The test system is the same in assay [5]. The settings on record: 100 mM acetate pH 4.0, 30 °C, 10–1000 µM ABTS, air O2; IVA189.
For assay [6] the test system is unchanged. The settings on record: 100 mM acetate pH 4.0, 30 °C, 10–1000 µM ABTS, air O2; RM464.
Assay [7] shares this test system. The settings on record: 100 mM acetate pH 4.0, 30 °C, 10–1000 µM ABTS, air O2; RM1905.
Assay [8] shares this test system. Conditions: 100 mM acetate pH 4.0, 30 °C, 10–1000 µM ABTS, air O2.
The test system is the same in assay [9]. Conditions: 100 mM acetate pH 4.0, 30 °C, 10–1000 µM ABTS, air O2; IVA264.
The test system is the same in assay [10]. Conditions: 100 mM acetate pH 4.0, 30 °C, 10–1000 µM ABTS, air O2; RM1524.
Assay [11] shares this test system. The settings on record: 100 mM acetate pH 4.0, 30 °C, 10–1000 µM ABTS, air O2; RM1925.

A word on the Km: it is the concentration of substrate that gives half-maximal velocity. Turning to `CCn1c(=NN=c2sc3cc(S(=O)(=O)O)ccc3n2CC)sc2cc(S(=O)(=O)O)ccc21` [2,2′-azino-bis(3-ethylbenzothiazoline-6-sulfonic acid)], the Km is 168 µM in assay [1]; 64.8 ± 1.4 µM in assay [2]; 85.3 ± 0.3 µM in assay [3]; 67.5 ± 1.7 µM in [4]; 69.8 ± 3.6 µM in assay [5]; 90.2 ± 3.4 µM in [6]. Moreover, the Km in [7] was 147 ± 14.6 µM; in [8], 206 ± 11.6 µM; in [9], 64 ± 2.5 µM; in [10], 59.8 ± 2.2 µM; in assay [11] it was 79.8 ± 12.7 µM.
